Assays:
[1] = test system: inflammation created by injecting carrageenin into the hind paws of rats; assay: Carrageenin Assay; assay type: in vivo; details: Rattus norvegicus, ip, 50 mg/kg i.p., prior to carrageenin injection, read-out: Percent Inhibition (Antiinflammatory Activity in the Carrageenin Assay)
Protocol: The compounds were evaluated for antiinflammatory activity in the test method described by C. A. Winter, Proc. Soc. Exp. Biol. Med., 111, 544 (1962). In this test, inflammation is created by injecting carrageenin into the hind paws of rats. Test compounds are administered prior to injection to determine percent inhibition of the subsequent inflammation in comparison with control animals.

[2] = molecular target: T1, leukotriene B4 specific receptor on the membrane of human neutrophils (Homo sapiens, UniProt Q15722); assay: Inhibition of Binding of ^3 H-LTB4 to Peripheral Human Neutrophils; details: 4° C., 10 minutes; for inhibition at 10 µM: drug concentration 10^-5 M, read-out: LTB4 Binding Inhibition; for inhibition at 1 µM: drug concentration 10^-6 M; for inhibition at 0.1 µM: drug concentration 10^-7 M
T1 construct: incubating neutrophils (1×10^7 cells) with 0.1-0.2 nM ^3 H-LTB4; endogenous in cells; host or cells: human peripheral blood neutrophils (buffy coats of two blood donors)
Method in brief: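 Freshly isolated human donor neutrophils (1×10^7 cells) in HBSS/0.1% ovalbumin pH 7.3 were incubated with 0.1-0.2 nM ^3H-LTB4 and compound at 1×10^-5 or 1×10^-6 M for 10 min at 4 °C. Bound ligand was separated by centrifugation through phthalate oil and counted, then corrected for nonspecific binding and compared with compound-free control.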

[3] = test system: Arachidonic Acid Induced Ear Edema; assay: Arachidonic Acid-Induced Ear Edema Assay; assay type: in vivo, Female BALB/C mice; details: Mus musculus, 1 h, topical, one hour prior to arachidonic acid, read-out: Percent Inhibition of Ear Swelling; for inhibition in vivo at 1 %: 1% in ethanol gel; for inhibition in vivo at 0.05 %: 0.05% in ethanol gel
Protocol: Female BALB/C mice (Charles River; 18-20 rams) were divided into groups of five. Arachidonic acid was dissolved in ethanol at a concentration of 200 mg/ml. Each mouse received 2 mg/ear of arachidonic acid on the inner surface of the right ear. This dose of phlogistic was applied by an automatic pipette in 10 mcl volumes. The left ear (control) received ethanol. Drugs were applied topically in an ethanol-based gel to the entire outer surface of both ears one hour prior to arachidonic acid application. Edema was measured by the increase in ear weight. An hour after arachidonic acid solution or vehicle was applied, an ear sample of 7 mm in diameter was obtained from both ears. Ear edema was calculated by subtracting the […], dividing by the weight of the left/Control ear, and averaging the results for each group of mice according to compound and concentration.

[4] = test system: shock after E. coli LPS and galactosamine (GALN) challenge; assay: Mouse Endotoxin Shock Assay; assay type: in vivo, C57BL/6 male mice; details: LPS/GALN s.c. challenge, results 48 hours after challenge, Reed Muench Method
Protocol: Compounds were given to 18-20 g C57BL/6 male mice using various regimens depending upon mode of administration. Control animals received corresponding vehicles only. The mice were then challenged with 0.2 ml of chromatographically purified 0111:B4 E. coli LPS and galactosamine hydrochloride (GALN) given subcutaneously (back of the neck). GALN was given at an approximate dose of 500 mg/kg whereas the LPS dose ranged between 0.3-1.2 μg/mouse (15-60 μg/k9). Control animals generally die of shock 7-15 hours after administration of LPS/GALN although a small number (0-5%) may die 24-48 hours after such administration. Calculation of the EDso for each compound was performed using the Reed Muench Method for results obtained 48 hours after challenge.

[5] = test system: IL-1 induced T-cell Proliferation; assay: Anti IL-1 Activity (Thymocyte Assay): suppression of IL-1 induced T-cell proliferation; assay type: cell-based, C3H/HeJ male mice; details: mouse thymocytes, 48 hours, read-out: Percent T-cell suppression; for inhibition at 1 µg/mL: 1 mcg/ml; for inhibition at 10 µg/mL: 10 mcg/ml
Protocol: Thymus from 3-4 week old C3H/HeJ male mice and were passed through a #100 mesh screen to make a single cell suspension. The cells were suspended in RPMI-1640 supplemented with 2×10^-5 M 2-mercaptoethanol, 3% fetal calf serum, and 1% Penicillin/Streptomycin. The cell suspension was placed in a tissue culture flask and incubated at 37° C. in 5% carbon dioxide in air for 1-2 hours. The thymocytes were decanted, leaving adherent cells behind, and the liquid was centrifuged at 1400 rpm for 10 minutes. After decanting the supernatant, the cells were resuspended and counted with a hemocytometer. The density was adjusted to […]. Fifty μ1 of the suspension were added to each well of a 96-well microtiter plate, followed by the addition of 25 μl of PHA and 25 μl IL-1 (1:25 dilution of a 10 mcg/ml stock solution) per well.
Each compound to be tested was dissolved in 30% DMSO/70% PBS to make a stock solution of 1 mg/ml. Fifteen μl of each compound were added to 300 μl of media in the serial dilution plate. Twenty-five μl of each drug were added to the test plate in quadruplicate wells across the plate. The plate was incubated at 37° C. in 5% carbon dioxide in air for 48 hours. The wells were pulsed with tritiated thymidine (5 μCi.well) for 4 hours before harvesting on a Skatron cell harvester. The filter discs were placed in mini-vials, scintillation fluid (Tol-Pop) was added, and the vials counted. The percent of counts for each vial compared with control samples wherein no compound was added (vehicles only) was determined for each compound and are reported as Table III below as the percent T-ce1 suppression.

T1 sequence (Q15722 whole entry): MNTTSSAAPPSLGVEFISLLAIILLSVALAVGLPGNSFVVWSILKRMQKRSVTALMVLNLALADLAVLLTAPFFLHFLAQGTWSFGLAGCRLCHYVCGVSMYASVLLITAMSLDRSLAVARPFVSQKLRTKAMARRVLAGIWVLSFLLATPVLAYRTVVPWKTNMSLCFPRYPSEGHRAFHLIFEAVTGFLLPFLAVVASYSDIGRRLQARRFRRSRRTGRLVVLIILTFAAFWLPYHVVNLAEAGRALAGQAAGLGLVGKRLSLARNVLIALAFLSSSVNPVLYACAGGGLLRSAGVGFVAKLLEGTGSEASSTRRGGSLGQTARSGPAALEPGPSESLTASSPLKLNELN

Row | SMILES | inhibition in vivo at 50 mg/kg [1] | inhibition at 10 µM [2] | inhibition at 1 µM [2] | inhibition in vivo at 1 % [3] | ED50 [4] | inhibition at 0.1 µM [2] | inhibition in vivo at 0.05 % [3] | inhibition at 1 µg/mL [5] | inhibition at 10 µg/mL [5] | inhibition in vivo at 0.1 % ([3]; 0.1% in ethanol gel)
1 | CCc1cc(C(C)=O)c(O)cc1OCCCC(C)(C)c1nnn[nH]1 [Example 136, 1-(5-Ethyl-2-hydroxy-4-{[4-methyl-4-(1H-tetrazol-5-yl)pentyl]oxy}phenyl)ethanone] | 41% | 100% | 77% |  |  |  |  |  |  | 
2 | CCc1cc(C(C)=O)c(O)cc1OCCCCCC(C)(C)c1nn[nH]n1 [Example 108, 5-Ethyl-2-hydroxy-4-[6-methyl-6-(1H-tetrazol5-yl)heptyloxy]acetophenone] | 61% | 105% | 96% | 60% | > 50 mg/kg | 60% |  |  |  | 
3 | CCc1cc(C(C)=O)c(O)cc1OCCCCCCc1nnn[nH]1 [Example 140, 1-(5-Ethyl-2-hydroxy-4-{[6-(1H-tetrazol-5-yl)-hexyl]oxy}phenyl)ethanone] | 31% | 94% | 59% |  |  |  |  |  |  | 
4 | C=CCc1cc(C(C)=O)c(O)cc1OCc1ccccc1C#N [Example 49, 2-[(4-Acetyl-5-hydroxy-2-allylphenoxy)-methyl]benzonitrile] | 43% | 47% | 15% |  | > 50 mg/kg |  | 31% |  |  | 
5 | CCCc1cc(C(C)=O)c(O)cc1OCCCc1ccccc1 [Example 53, 2-Hydroxy-4-(3-phenylpropoxy)-5-propyl-acetophenone] | 50 to 60% | 5% | 13% |  |  |  | 24% |  |  | 
6 | CCc1cc(C(C)=O)c(O)cc1OCCCCCC(C)(C)C#N [Example 68, 4-(6-Cyano-6-methylheptyloxy)-5-ethyl-2-hydroxyacetophenone] | 33% | 84% | 53% | 46% | > 50 mg/kg |  |  | 13% | 99% | 
7 | CCc1cc(C(C)=O)c(O)cc1OCCCCCCC#N [Example 20, 7-(4-Acetyl-2-ethyl-5-hydroxyphenoxy)-heptanenitrile] | 19% | 102% | 72% |  |  |  |  | 39% | 99% | 
8 | CCc1cc(C(C)=O)c(O)cc1OCCCCc1nnnn1C [Example 122, 2-Hydroxy-4-[4-(1-methyl-lH-tetrazol-5-yl)butoxy]-5-ethylacetophenone] | 53% | 66% | 24% | 10% | 42 mg/kg |  |  | 37% | 87% | 
9 | CCc1cc(C(C)=O)c(O)cc1OCCCCC#N [Example 19, 5-(4-Acetyl-2-ethyl-5-hydroxyphenoxy)-pentanenitrile] | 26% | 90% | 61% |  |  |  |  |  |  | 
10 | C=CCc1cc(C(C)=O)c(O)cc1OCc1ccccc1 [Example 47, 2-Hydroxy-4-benzyloxy-5-allylacetophenone] | 53 to 65% | 32% | 5% |  | 24 mg/kg |  | 52% |  |  | 
11 | CCc1cc(C(C)=O)c(O)cc1OCCCCc1nnn(C)n1 [Example 123, 2-Hydroxy-4-[4-(2-methyl-2H-tetrazol-5-yl)butoxy]-5-ethylacetophenone] | 55% | 98% | 60% | 58% |  |  |  | 36% | 90% | 
12 | CCc1cc(C(C)=O)c(O)cc1OCCCCCC[S+](C)[O-] (centres unmarked) [Example 82, 2-Hydroxy-4-[6-(methylsulfinyl)hexyl-oxy]-5-ethylacetophenone] | 31% | 91% | 50% | 9% | > 50 mg/kg |  |  | 21% | 88% | 
13 | C=CCc1cc(C(C)=O)c(O)cc1OCc1cccc(C)c1 [Example 51, 2-Hydroxy-4-(3-methylbenzyloxy)-5-allyl-acetophenone] | 79% | 24% | 32% |  | 27 mg/kg |  | 43% |  |  | 31%
14 | CCc1cc(C(C)=O)c(O)cc1OCc1cccc(C(=O)OC)c1 [Example 93] |  | 64% | 22% |  | 25 mg/kg |  |  |  |  | 
15 | C=CCc1cc(C(C)=O)c(O)cc1OCc1ccc(C#N)cc1 [Example 48, 4[(4-Acetyl-5-hydroxy-2-allylphenoxy)-methyl]benzonitrile] | 30% | 22% | 28% |  | 18.6 mg/kg |  | 13.6% |  |  | 
16 | CCc1cc(C(C)=O)c(O)cc1OCc1cccc(C#N)c1 [Example 55] | 70% | 60% | 71% | 57% | 3.1 mg/kg | 25% | 43 to 59% |  |  | 
17 | C=CCc1cc(C(C)=O)c(O)cc1OCc1cccc(C#N)c1 [Example 50] | 50 to 82% | 67% | 66% |  | 9.5 mg/kg | 25% | 29 to 47% |  |  | 
18 | C=CCc1cc(C(C)=O)c(O)cc1OCCCCCC(=O)NO [Example 100, 6-(4-Acetyl-5-hydroxy-2-allylphenoxy)-droxyhexanamide] | 38% | 84% | 28% | 18% |  |  |  |  |  | 
19 | CCc1cc(C(C)=O)c(O)cc1OCc1cccc(F)c1 [Example 54, 5-Ethyl-4-(3-fluorobenzyloxy)-2-hydroxy-acetophenone] |  | 42% | 32% |  | 21 mg/kg |  |  |  |  | 
20 | CCc1cc(C(C)=O)c(O)cc1OCCCCc1nn[nH]n1 [Example 110, 5-Ethyl-2-hydroxy-4-[4-(lH-tetrazol-5-y)butoxy]acetophenone] | 64% | 49% | 19% | 58% |  |  |  |  |  | 
21 | CCc1cc(C(C)=O)c(O)cc1OCCCCCC(C)(C)C(=O)O [Example 87, 7-(4-Acetyl-2-ethyl-5-hydroxyphenoxy)-2,2-dimethylheptanoic acid] | 15% | 104% | 73% | 3% |  | 20% |  |  |  | 
